Reference: patent US20230026611A1, “ARYL HETEROCYCLIC COMPOUNDS AS Kv1.3 POTASSIUM SHAKER CHANNEL BLOCKERS” (D. E. Shaw Research, LLC, priority 2019, published 2023)

What was measured:
Kv1.3 potassium channel = biological target: T1, Kv1.3 potassium channel (Homo sapiens, UniProt P22001); experiment: Kv1.3 potassium channel blocker activity, automated whole-cell patch clamp (Patchliner) in CHO-K1 cells stably expressing Kv1.3; assay type: cell-based; details: CHO-K1 cells stably expressing Kv1.3; patch clamp, current inhibition; read-out: Kv1.3 IC50
T1 construct: expressed in transfected cells
Protocol: Example 82. Evaluation of Kv1.3 potassium channel blocker activities
This assay is used to evaluate the disclosed compounds' activities as Kv1.3 potassium channel blockers.
CHO-K1 cells stably expressing Kv1.3 were grown in DMEM containing 10% heat-inactivated FBS, 1 mM sodium pyruvate, 2 mM L-glutamine, and G418 (500 μg/ml).
All compounds were dissolved in DMSO at 30 mM.
The currents were evoked by applying 100 ms depolarizing pulses from −90 mV (holding potential) to +40 mV were applied with 0.1 Hz frequency. […] 10-second breaks were used between pulse trains (see Table A below).
Data were sampled at 10 kHz without filtering. Passive leak currents were subtracted online using a P/4 procedure (HEKA Elektronik Dr. Schulze GmbH). […] Total compound incubation time before the next pulse train was not longer than 10 seconds. Peak current inhibition was observed during compound equilibration.

hERG channel = hERG channel (Homo sapiens, UniProt Q12809); experiment: hERG electrophysiology, automated whole-cell patch clamp (Patchliner) in CHO-K1 cells stably expressing hERG
Chain of hERG channel (Q12809 whole entry): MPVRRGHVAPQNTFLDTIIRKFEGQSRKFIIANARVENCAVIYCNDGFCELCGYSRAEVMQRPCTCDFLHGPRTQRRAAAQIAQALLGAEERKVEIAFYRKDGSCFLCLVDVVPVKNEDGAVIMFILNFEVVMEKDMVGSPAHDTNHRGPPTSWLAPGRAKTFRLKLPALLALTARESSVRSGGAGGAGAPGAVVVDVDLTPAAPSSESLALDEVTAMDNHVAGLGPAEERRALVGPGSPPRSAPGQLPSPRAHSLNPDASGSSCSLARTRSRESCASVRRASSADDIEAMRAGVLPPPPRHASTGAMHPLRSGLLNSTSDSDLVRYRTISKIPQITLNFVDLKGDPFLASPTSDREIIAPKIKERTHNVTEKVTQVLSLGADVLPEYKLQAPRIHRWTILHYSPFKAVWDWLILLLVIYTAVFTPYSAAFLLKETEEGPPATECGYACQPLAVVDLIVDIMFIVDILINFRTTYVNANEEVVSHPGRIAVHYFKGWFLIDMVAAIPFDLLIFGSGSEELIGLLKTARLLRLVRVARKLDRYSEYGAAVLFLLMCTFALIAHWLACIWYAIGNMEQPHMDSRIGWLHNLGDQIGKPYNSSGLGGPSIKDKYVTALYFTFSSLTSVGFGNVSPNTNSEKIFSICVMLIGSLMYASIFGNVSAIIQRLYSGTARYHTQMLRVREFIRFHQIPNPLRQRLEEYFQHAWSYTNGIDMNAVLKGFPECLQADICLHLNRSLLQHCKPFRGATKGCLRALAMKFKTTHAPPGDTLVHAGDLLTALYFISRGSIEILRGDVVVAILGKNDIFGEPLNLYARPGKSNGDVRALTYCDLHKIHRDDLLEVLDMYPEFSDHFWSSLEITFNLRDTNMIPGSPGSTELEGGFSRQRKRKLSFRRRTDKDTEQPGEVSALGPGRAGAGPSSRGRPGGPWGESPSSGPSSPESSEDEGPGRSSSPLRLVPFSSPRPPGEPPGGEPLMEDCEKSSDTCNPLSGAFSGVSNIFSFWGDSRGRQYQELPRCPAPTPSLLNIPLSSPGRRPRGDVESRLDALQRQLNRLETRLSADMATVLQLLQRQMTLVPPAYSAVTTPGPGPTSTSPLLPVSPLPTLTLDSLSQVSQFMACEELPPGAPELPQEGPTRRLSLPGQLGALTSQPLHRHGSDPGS
Protocol: Evaluation of hERG Activities
This assay is used to evaluate the disclosed compounds's inhibition activities against the hERG channel.
CHO-K1 cells stably expressing hERG were grown in Ham's F-12 Medium with glutamine containing 10% heat-inactivated FBS, 1% penicillin/streptomycin, hygromycin (100 μg/ml) and G418 (100 μg/ml). Cells were grown in culture flasks at 37° C. in a 5% CO2-humidified incubator.
The cells were bathed in an extracellular solution containing 140 mM NaCl, 4 mM KCl, 2 mM CaCl2), 1 mM MgCl2, 5 mM Glucose, 10 mM HEPES; pH adjusted to 7.4 with NaOH; 295-305 mOsm. The internal solution contained 50 mM KCl, 10 mM NaCl, 60 mM KF, 20 mM EGTA, 10 mM HEPES; pH adjusted to 7.2 with KOH; 285 mOsm. All compounds were dissolved in DMSO at 30 mM. Compound stock solutions were freshly diluted with external solution to concentrations of 30 nM, 100 nM, 300 nM, 1 μM, 3 μM, 10 μM, 30 μM and 100 μM. The highest content of DMSO (0.3%) was present in 100 μM.
The voltage protocol (see Table B) was designed to simulate voltage changes during a cardiac action potential with a 300 ms depolarization to +20 mV (analogous to the plateau phase of the cardiac action potential), a repolarization for 300 ms to −50 mV (inducing a tail current) and a final step to the holding potential of −80 mV. The pulse frequency was 0.3 Hz. Control (compound-free) and compound pulse trains for each compound concentration applied contained 70 pulses.
Whole-cell current recordings and compound application were enabled by means of an automated patch clamp platform Patchliner (Nanion). EPC 10 patch clamp amplifier (HEKA) along with Patchmaster software (HEKA Elektronik Dr. Schulze GmbH) was used for data acquisition. Data were sampled at 10 kHz without filtering. Increasing compound concentrations were applied consecutively to the same cell without washouts in between.
AUC and PEAK values were obtained with Patchmaster (HEKA Elektronik Dr. Schulze GmbH). To determine IC50 the last single pulse in the pulse train corresponding to a given compound concentration was used. Obtained AUC and PEAK values in the presence of compound were normalized to control values in the absence of compound. Using Origin (OridinLab), IC50 was derived from data fit to Hill equation: Icompound/control=(100−A)/(1+([compound]/IC50)nH)+A, where IC50 is the concentration at which current inhibition is half-maximal, [compound] is the applied compound concentration, A is the fraction of current that is not blocked and nH is the Hill coefficient.

T1 sequence (P22001 whole entry): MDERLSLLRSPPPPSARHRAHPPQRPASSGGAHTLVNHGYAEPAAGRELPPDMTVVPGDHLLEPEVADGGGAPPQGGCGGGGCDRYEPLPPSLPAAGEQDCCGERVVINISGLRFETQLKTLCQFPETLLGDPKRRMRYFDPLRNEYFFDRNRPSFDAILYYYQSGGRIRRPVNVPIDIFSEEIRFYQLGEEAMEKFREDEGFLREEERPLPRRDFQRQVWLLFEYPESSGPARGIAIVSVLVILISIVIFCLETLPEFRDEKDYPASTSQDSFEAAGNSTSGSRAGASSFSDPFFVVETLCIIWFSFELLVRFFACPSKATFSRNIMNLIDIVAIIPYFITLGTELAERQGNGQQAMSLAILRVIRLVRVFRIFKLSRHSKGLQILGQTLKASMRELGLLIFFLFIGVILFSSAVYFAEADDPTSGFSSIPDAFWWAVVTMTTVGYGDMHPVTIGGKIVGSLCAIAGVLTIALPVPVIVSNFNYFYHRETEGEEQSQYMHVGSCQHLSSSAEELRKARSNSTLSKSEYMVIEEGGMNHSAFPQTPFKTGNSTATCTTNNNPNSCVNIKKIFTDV

| Compound | IC50 (Kv1.3 potassium channel) [µM] | IC50 (hERG channel) [µM] |
| --- | --- | --- |
| Cc1cc(O)c(C2CCNCC2)cc1Cl [Compound 12, 4-chloro-5-methyl-2-(piperidin-4-yl)phenol] | < 10 | < 30 |
| Oc1cc(Cl)c(Cl)cc1N1CCNCC1 [Compound 5, 4,5-dichloro-2-(piperazin-1-yl)phenol] | < 10 | < 30 |
| Oc1cc(Cl)c(Cl)cc1C1CCCNCC1 (centres unmarked) [Compound 39, 2-(azepan-4-yl)-4,5-dichlorophenol] | < 1 | < 30 |
| CC1(N)CCN(c2cc(Cl)c(Cl)cc2O)CC1 [Compound 25, 2-(4-amino-4-methylpiperidin-l-yl)-4,5-dichlorophenol] | < 1 | < 30 |
| O=C(C[C@H]1CC(c2c(O)ccc(Cl)c2Cl)CCN1)N1CCOCC1 (single isomer, unassigned) [Compound 67] | < 1 | > 30 |
| CN1CCC(c2cc(Cl)c(Cl)cc2O)CC1 [Compound 4, 4,5-dichloro-2-(1-methylpiperidin-4-yl)phenol] | < 1 | < 30 |
| NC(=O)C[C@H]1C[C@@H](c2c(O)ccc(Cl)c2Cl)CCN1 (relative stereo) [Compound 108, 2-[(2R,4S)-rel-4-(2,3-dichloro-6-hydroxyphenyl)piperidin-2-yl]acetamide] | < 1 | > 30 |
| O=C(NC1CNC1)C1CCCC(c2c(O)ccc(Cl)c2Cl)N1 (centres unmarked) [Compound 127, N-(azetidin-3-yl)-6-(2,3-dichloro-6-hydroxyphenyl)piperidine-2-carboxamide] | < 10 | > 30 |
| Oc1cc(Cl)c(Cl)cc1C1CCCCNC1 (centres unmarked) [Compound 40, 2-(azepan-3-yl)-4,5-dichlorophenol] | < 10 | < 30 |
| NC1CCN(c2cc(Cl)c(Cl)cc2O)CC1 [Compound 8, 2-(4-aminopiperidin-1-yl)-4,5-dichlorophenol] | < 1 | < 30 |
| OCC1CC(c2cc(Cl)c(Cl)cc2O)CN1 (centres unmarked) [Compound 36, 4,5-dichloro-2-(5-(hydroxymethyl)pyrrolidin-3-yl)phenol] | < 10 | < 30 |
| O=C([C@H](O)CO)N1CCC(c2c(O)ccc(Cl)c2Cl)CC1 [Compound 2, (2R)-1-[4-(2,3-dichloro-6-hydroxyphenyl)piperidin-1-yl]-2,3-dihydroxypropan-1-one] | < 1 | > 30 |
| NCC1CCN(c2cc(Cl)c(Cl)cc2O)CC1 [Compound 28, 2-[4-(aminomethyl)pip-eridin-1-yl]-4,5-dichlorophenol] | < 1 | < 30 |
| O=C(NC1CNC1)[C@H]1CC[C@H](c2c(O)ccc(Cl)c2Cl)N1 (single isomer, unassigned) [Compound 118] | < 1 | > 100 |
| Oc1cc(Cl)c(Cl)cc1C1CCNC(C2CC2)C1 (centres unmarked) [Compound 43, 4,5-dichloro-2-(2-cyclopropylpiperidin-4-yl)phenol] | < 1 | < 30 |
| O=C(NC1CNC1)[C@@H]1CN[C@@H](c2c(O)ccc(Cl)c2Cl)C1 (single isomer, unassigned) [Compound 122] | < 1 | > 100 |
| NC(=O)C1CCCN(c2c(O)ccc(Cl)c2Cl)C1 (centres unmarked) [Compound 88, 1-(2,3-dichloro-6-hydroxyphenyl)piperidine-3-carboxamide] | < 10 |  |
| O=C(NC1CNC1)C1CN[C@@H](c2c(O)ccc(Cl)c2Cl)C1 (single isomer, unassigned) [Compound 121] | < 1 |  |
| O=C(NC1CNC1)[C@@H]1CN[C@H](c2c(O)ccc(Cl)c2Cl)C1 (single isomer, unassigned) [Compound 123] | < 10 |  |
| Cc1ccc(O)c(C2CCNCC2)c1Cl [Compound 71, 3-chloro-4-methyl-2-(piperidin-4-yl)phenol] | < 30 |  |
| O=C(C1CC(c2c(O)ccc(Cl)c2Cl)CCN1)N1CCNCC1 (centres unmarked) [Compound 75, 3,4-dichloro-2-[2-(piperazine-1-carbonyl)piperidin-4-yl]phenol] | < 10 |  |

The next lines start with results.

| IC50 (Kv1.3 potassium channel) [µM] | Compound | IC50 (hERG channel) [µM] |
| --- | --- | --- |
| < 1 | CC(=O)NCC1CC(c2c(O)ccc(Cl)c2Cl)CCN1 (centres unmarked) [Compound 79, N-[[4-(2,3-dichloro-6-hydroxyphenyl)piperidin-2-yl]methyl]acetamide] | > 30 |
| < 1 | CNC(=O)C1CC(c2c(O)ccc(Cl)c2Cl)CCN1 (centres unmarked) [Compound 72, 4-(2,3-dichloro-6-hydroxyphenyl)-N-methylpiperidine-2-carboxamide] | > 30 |
| < 1 | O=S(=O)(NCC1CC(c2c(O)ccc(Cl)c2Cl)CCN1)c1ccccc1 [Compound 94, N-(2R,4S)-rel-[[4-(2,3-dichloro-6-hydroxyphenyl)piperidin-2-yl]methyl]benzenesulfonamide] | < 30 |
| < 1 | NCC1CN(c2cc(Cl)c(Cl)cc2O)C1 [Compound 31, 2-(3-(aminomethyl)aze-tidin-1-yl)-4,5-dichlorophenol] | < 30 |
| < 1 | O=C(NCC1CC(c2c(O)ccc(Cl)c2Cl)CCN1)C1COC1 [Compound 104, (2R,4S)-rel-N-[[4-(2,3-dichloro-6-hydroxyphenyl)piperidin-2-yl]methyl]oxetane-3-carboxamide] | > 30 |
| < 1 | O=S1(=O)CCCN1CC1CC(c2c(O)ccc(Cl)c2Cl)CCN1 (centres unmarked) [Compound 112, 2-[[4-(2,3-dichloro-6-hydroxyphenyl)piperidin-2-yl]methyl]-1,2-thiazolidine-1,1-dione] | < 30 |
| < 1 | O=C(C[C@H]1C[C@@H](c2c(O)ccc(Cl)c2Cl)CCN1)NC1CCC1 (relative stereo) [Compound 111, N-cyclobutyl-(2R,4S)-rel-2-[4-(2,3-dichloro-6-hydroxyphenyl)piperidin-2-yl]acetamide] | < 30 |
| < 1 | NCC(=O)N1CCC(c2c(O)cc(Cl)c(Cl)c2Cl)CC1 [Compound 98, 2-amino-1-[4-(2,3,4-trichloro-6-hydroxyphenyl)piperidin-1-yl]ethan-1-one] | < 30 |
| < 1 | CN(C)C1CCN(c2cc(Cl)c(Cl)cc2O)CC1 [Compound 23, 4,5-dichloro-2-[4-(dimethylamino)piperidin-1-yl]phenol] | < 30 |
| < 1 | O=S(=O)(NC[C@H]1C[C@@H](c2c(O)ccc(Cl)c2Cl)CCN1)C1CC1 (relative stereo) [Compound 97, N-(2R,4S)-rel-[[4-(2,3-dichloro-6-hydroxyphenyl)piperidin-2-yl]methyl]cyclopropanesulfonamide] | > 30 |
| < 1 | NC(=O)C[C@@H]1C[C@H](c2c(O)ccc(Cl)c2Cl)CCN1 (single isomer, unassigned) [Compound 109] | > 30 |
| < 1 | NC(=O)[C@@H]1C[C@H](c2c(O)ccc(Cl)c2Cl)CCN1 (single isomer, unassigned) [Compound 73] | > 30 |
| < 1 | Nc1nnc([C@@H]2C[C@H](c3c(O)ccc(Cl)c3Cl)CCN2)o1 (single isomer, unassigned) [Compound 105] | > 30 |
| < 1 | O=C(NCC1CC(c2c(O)ccc(Cl)c2Cl)CCN1)C1CC1 [Compound 106, (2R,4S)-rel-N-[[4-(2,3-dichloro-6-hydroxyphenyl)piperidin-2-yl]methyl]cyclopropane carboxamide] | > 30 |
